{"source": "patent US7115268B1", "about": "“Peptides useful for reducing symptoms of toxic shock syndrome and septic shock” (The Rockefeller University, priority 1997, dated 2006)", "key": {"[1]": {"set-up": "species or system New Zealand White rabbits", "details": "rabbit, in vivo; for antibody titers to the immunizing peptide (ELISA): sc"}, "[2]": {"test_system": "PBMC stimulated with SPEG", "assay_type": "cell-based, human", "details": "72 hours"}, "[3]": {"test_system": "PBMC stimulated with SPEZ", "assay_type": "cell-based, human", "details": "72 hours"}, "[4]": {"target": "SPEA (Streptococcus pyogenes phage T12, UniProt P0DJY8)", "sequence (P0DJY8 31-251)": "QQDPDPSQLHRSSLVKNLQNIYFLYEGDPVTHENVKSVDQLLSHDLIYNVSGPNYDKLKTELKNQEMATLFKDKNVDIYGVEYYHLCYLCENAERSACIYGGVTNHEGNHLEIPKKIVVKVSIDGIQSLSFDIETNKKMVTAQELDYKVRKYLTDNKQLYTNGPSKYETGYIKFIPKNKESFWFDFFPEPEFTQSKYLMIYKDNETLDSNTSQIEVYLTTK", "details": "mouse, in vivo"}, "[5]": {"set-up": "species or system mice", "details": "mouse, in vivo"}, "[6]": {"target": "SEB (Staphylococcus aureus, UniProt P01552)", "sequence (P01552 28-266 limits assumed)": "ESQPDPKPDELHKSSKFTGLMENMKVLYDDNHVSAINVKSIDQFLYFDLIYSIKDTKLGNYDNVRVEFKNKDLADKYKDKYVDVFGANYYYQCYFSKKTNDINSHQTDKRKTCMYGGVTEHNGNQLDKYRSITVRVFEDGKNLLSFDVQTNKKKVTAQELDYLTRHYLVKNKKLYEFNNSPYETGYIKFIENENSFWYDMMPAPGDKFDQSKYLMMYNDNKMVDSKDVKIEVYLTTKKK", "details": "mouse, in vivo"}, "[7]": {"test_system": "PBMC stimulated with SEC", "assay_type": "cell-based, human", "details": "72 hours"}, "[8]": {"test_system": "PBMC stimulated with SEB", "assay_type": "cell-based, human", "details": "72 hours"}, "[9]": {"test_system": "PBMC stimulated with SPEH", "assay_type": "cell-based, human", "details": "72 hours"}, "[10]": {"target": "TSST-1 (Staphylococcus aureus, UniProt P06886)", "sequence (P06886 41-234 limits assumed)": "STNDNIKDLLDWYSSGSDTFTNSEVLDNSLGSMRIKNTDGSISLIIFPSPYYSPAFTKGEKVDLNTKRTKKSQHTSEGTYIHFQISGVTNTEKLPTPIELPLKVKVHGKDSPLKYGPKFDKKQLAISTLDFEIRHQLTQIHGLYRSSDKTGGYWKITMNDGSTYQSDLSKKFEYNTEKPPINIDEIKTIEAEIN", "details": "mouse, in vivo"}, "[11]": {"test_system": "PBMC stimulated with SED", "assay_type": "cell-based, human", "details": "72 hours"}, "[12]": {"test_system": "purified MHC class II molecules", "assay_type": "binding"}, "[13]": {"test_system": "PBMC stimulated with SPEC", "assay_type": "cell-based, human", "details": "72 hours"}, "[14]": {"test_system": "PBMC stimulated with SPEA", "assay_type": "cell-based, human", "details": "72 hours"}, "[15]": {"test_system": "PBMC stimulated with TSST-1", "assay_type": "cell-based, human", "details": "72 hours"}}, "note": "Values joined by “and” are separate entries in the source; they are usually repeats but may differ in a detail not shown here. Equal entries are not always repeated. “Also recorded” adds a separate entry of the source. Where two headings read alike, the source gives them in different places.", "data": [{"substance": "CMYGGVTEHEGNKKNVTVQELDYKIRKYLVDNKKLYGC* [peptide 6348]", "values": [{"measurement": "antibody titers to the immunizing peptide (ELISA)", "setting": "[1]", "value": "high titer antibodies; also recorded: significant antibody titers"}]}, {"substance": "CGKKNVTVQELDYKIRKYLVDNKKLYGC* [peptide 6346]", "values": [{"measurement": "antibody titers to the immunizing peptide (ELISA)", "setting": "[1]", "value": "high titers"}]}, {"substance": "CMYGGVTEHEGNGC* [compound 6344]", "values": [{"measurement": "antibody titers to the immunizing peptide (ELISA)", "setting": "[1]", "value": "high titers"}]}, {"substance": "CMYGGVTEHEGN [peptide 6343]", "values": [{"measurement": "inhibition of blastogenesis (tritiated thymidine incorporation)", "setting": "[2]", "value": "inhibited blastogenesis"}, {"measurement": "inhibition of blastogenesis (tritiated thymidine incorporation)", "setting": "[3]", "value": "inhibited blastogenesis"}, {"measurement": "induction of detectable antibodies", "setting": "[1]", "value": "does not induce detectable antibodies"}, {"measurement": "Alive/Total SPEA", "setting": "[4]", "value": "2 out of 2 and 2/2 (100%)"}, {"measurement": "Alive/Total SPEA, percent alive", "setting": "[4]", "value": "2/2 (100%)"}, {"measurement": "induction of detectable antibodies", "setting": "[5]", "value": "does not induce detectable antibodies"}, {"measurement": "Alive/Total SEB", "setting": "[6]", "value": "5 out of 6 and 5/6 (83%)"}, {"measurement": "Alive/Total SEB, percent alive", "setting": "[6]", "value": "5/6 (83%)"}, {"measurement": "inhibition of blastogenesis (tritiated thymidine incorporation)", "setting": "[7]", "value": "inhibited blastogenesis"}, {"measurement": "inhibition of blastogenesis (tritiated thymidine incorporation)", "setting": "[8]", "value": "inhibited blastogenesis"}, {"measurement": "inhibition of blastogenesis, dose response", "setting": "[8]", "value": "dose-response inhibition of blastogenesis"}, {"measurement": "inhibitory activity of SEB compared with peptide 6346 or peptide 6348", "setting": "[8]", "value": "more inhibitory activity"}, {"measurement": "inhibition of blastogenesis (tritiated thymidine incorporation)", "setting": "[9]", "value": "inhibited blastogenesis"}, {"measurement": "Alive/Total TSST-1", "setting": "[10]", "value": "2 out of two and 2/2 (100%)"}, {"measurement": "Alive/Total TSST-1, percent alive", "setting": "[10]", "value": "2/2 (100%)"}, {"measurement": "inhibition of blastogenesis (tritiated thymidine incorporation)", "setting": "[11]", "value": "inhibited blastogenesis"}, {"measurement": "binding to the MHC complex", "setting": "[12]", "value": "binds very strongly"}, {"measurement": "competition for the site of SEB binding on MHC (decreased anti-SEB antibody binding)", "setting": "[12]", "value": "able to compete effectively; also recorded: decreased anti-SEB binding at increased concentrations"}, {"measurement": "inhibition of blastogenesis (tritiated thymidine incorporation)", "setting": "[13]", "value": "inhibited blastogenesis"}, {"measurement": "inhibition of blastogenesis (tritiated thymidine incorporation)", "setting": "[14]", "value": "inhibited blastogenesis"}, {"measurement": "inhibition of blastogenesis (tritiated thymidine incorporation)", "setting": "[15]", "value": "inhibited blastogenesis"}]}]}
